# Experimental data: PMC6936460 (Proceedings of the National Academy of Sciences of the …, 2019)
# System: P. aeruginosa C1
# Test: P. aeruginosa lung infection mouse model
# Assay type: in vivo, C57BL/6 mice
# Details: for median lung bacteria load: 2 times per day for 3 days, n = 8, vehicle 2.51 × 10^7 CFU/g; for inhibition of lung colonization: vs vehicle
substance,measurement,setting,value
colistin sulfate,median lung bacteria load,2 mg/kg i.v.,1.72 × 10^7 CFU/g
same,inhibition of lung colonization,2 mg/kg i.v.,31%
same,median lung bacteria load,4 mg/kg i.v.,0.86 × 10^7 CFU/g
same,inhibition of lung colonization,4 mg/kg i.v.,65%
